Results: patent US20030073705A1, “Method of treatment” (priority 2001, published 2003)

Key:
[1] = test system: patients with Type 2 diabetes and nephropathy; assay: Secondary endpoints: proteinuria and progression of renal disease (slope of reciprocal of serum creatinine); format: in vivo, human; conditions: on-treatment; p=0.01 versus placebo
Procedure: (§1) The study involved male and female patients ranging in age from 31 to 70 years diagnosed with Type 2 diabetes and nephropathy; the latter defined as two urine albumin:creatinine ratios from a first morning specimen >300 mg/g (34 mg/mmol) (or a 24-hr urine protein >=500 mg (0.5 g/day)) and two serum creatinine values between 1.3 and 3.0 mg/dL (115 and 265 μmol/L) (lower limit of 1.5 mg/dL (133 μmol/L)for males >60 kg). […] Journal of the Renin Angiotensin Aldosterone System 2000;1(4):328-35. Patients were excluded from the study if diagnosed with Type 1 diabetes or nondiabetic renal disease, including renal artery stenosis. Patients with a history of heart failure, myocardial infarction or coronary artery bypass grafting within 1 month, cerebral vascular accident or percutaneous transluminal coronary angioplasty within 6 months or transient ischemic attacks within 1 year prior to enrollment were excluded.
During the 6-week screening phase, hypertensive patients continued to take their standard antihypertensive therapy. […]
The primary efficacy parameter was a composite endpoint of time to the first event of doubling of serum creatinine concentration, end stage renal disease, or death. […] Other secondary endpoints included progression of renal disease as assessed by the slope of the reciprocal of serum creatinine concentration and changes in proteinuria. […]

[2] = test system: patients with Type 2 diabetes and nephropathy; assay: Trough sitting blood pressure during the study; format: in vivo, human
Procedure: The results reported here represent a mean follow-up time of 3.4 years.
as §1
(§2) During the 6-week screening phase, hypertensive patients continued to take their standard antihypertensive therapy. However, in those patients taking angiotensin I converting enzyme inhibitors or angiotensin II receptor antagonists, these agents were discontinued at the beginning of the screening phase and replaced by alternative open-label therapy at the investigator's discretion (diuretic, calcium-channel antagonist, α- or β-blocker, and/or centrally acting agent). […] After an additional 8 weeks, further antihypertensive therapy with agents described above (exclusive of angiotensin I converting enzyme inhibitors or angiotensin II receptor antagonists), were added or increased in dosage to achieve the goal trough sitting blood pressure.
Throughout the study, patients received standard medical care for treatment of diabetes, including routine measurements of HbAlc and fasting serum glucose concentrations. Study visits were scheduled every 3 months or more frequently if necessary for monitoring trough sitting blood pressure control, changes in laboratory measurements, adverse experiences and endpoints. Patients who discontinued early from blinded study therapy were followed every 3 months until study end for primary and secondary endpoints, blood pressure control and laboratory measurements. Those who could not return for clinic visits were contacted by telephone for endpoints of dialysis, renal transplantation or death. […]

[3] = test system: patients with Type 2 diabetes and nephropathy; assay: Triple-blind, randomized, placebo-controlled study: primary composite endpoint (doubling of serum creatinine, end stage renal disease or death) and components; format: in vivo, human
Procedure: as §1, §2
(§3) Throughout the study, patients received standard medical care for treatment of diabetes, including routine measurements of HbAlc and fasting serum glucose concentrations. Study visits were scheduled every 3 months or more frequently if necessary for monitoring trough sitting blood pressure control, changes in laboratory measurements, adverse experiences and endpoints. Patients who discontinued early from blinded study therapy were followed every 3 months until study end for primary and secondary endpoints, blood pressure control and laboratory measurements. Those who could not return for clinic visits were contacted by telephone for endpoints of dialysis, renal transplantation or death.
(§4) The primary efficacy parameter was a composite endpoint of time to the first event of doubling of serum creatinine concentration, end stage renal disease, or death. End stage renal disease was defined as the need for chronic dialysis or renal transplantation. The prespecified secondary endpoint, cardiovascular morbidity and mortality, was a composite of myocardial infarction, stroke, hospitalization for heart failure or unstable angina, coronary or peripheral revascularization, and death from cardiovascular-related causes. Analyses of the components of both the primary and secondary composite endpoints also were prespecified. Other secondary endpoints included progression of renal disease as assessed by the slope of the reciprocal of serum creatinine concentration and changes in proteinuria. (See Mitch W E, Walser M, Buffington G A, Lemann J Jr. A simple method of estimating progression of chronic renal failure. Lancet 1976;2:1326-8.) An independent, blinded endpoint committee adjudicated all potential clinical endpoints occurring from the time of randomization until study termination.
(§5) A supportive, per-protocol analysis excluded patients who violated the inclusion/exclusion criteria, and censored patients 14 days after permanent discontinuation of study medication.

[4] = test system: patients with Type 2 diabetes and nephropathy; assay: Discontinuation from study therapy and adverse experiences; conditions: n = 751
Procedure: as §1, §2, §3

[5] = test system: patients with Type 2 diabetes and nephropathy; assay: Secondary endpoint: cardiovascular morbidity and mortality and components; format: in vivo, human
Procedure: as §1, §2, §4, §5

[6] = intention-to-treat, n = 751, mean follow-up 3.4 years
[7] = losartan relative to placebo, p=0.010

Substance: 2-N-butyl-4-chloro-5-hydroxymethyl-1-[(2′-(1H-tetrazol-5-yl)biphenyl-4-yl)-methyl]imidazole, potassium salt [Losartan]
- Rate of decline in renal function, median slope of reciprocal of serum creatinine concentration [1]: −0.056 dl/mg/yr
- Trough diastolic blood pressure ([2]; at 1 year, average): 78 mmHg
- Trough systolic blood pressure ([2]; at 1 year, average): 146 mmHg
- Mean arterial pressure ([2]; at 1 year, p<0.001 versus placebo): 100.9 mmHg
- Pulse pressure ([2]; at 1 year, p=0.047 versus placebo): 67.8 mmHg
- Trough diastolic blood pressure ([2]; at study end, average): 74 mmHg
- Trough systolic blood pressure ([2]; at study end, average): 140 mmHg
- Mean arterial pressure ([2]; at study end, p=0.59 versus placebo): 95.9 mmHg
- Pulse pressure ([2]; at study end, p=0.77 versus placebo): 66.7 mmHg
- Trough diastolic blood pressure ([2]; at year 2, average): 77 mmHg
- Trough systolic blood pressure ([2]; at year 2, average): 143 mmHg
- Pulse pressure ([2]; at year 2, p=0.37 versus placebo): 66.2 mmHg
- Mean arterial pressure ([2]; at year 2, p=0.38 versus placebo): 99.1 mmHg
- Patients reaching primary composite endpoint (number) ([3]; intention-to-treat analysis): 327 patients
- Patients reaching primary composite endpoint (percent) ([3]; intention-to-treat analysis): 43.5%
- Primary composite endpoint, event rate ([3]; intention-to-treat analysis): 15.9 /100 patient years of follow-up
- Doubling of sCr, ESRD or Death (composite primary endpoint), patients ([3]; intention-to-treat, losartan 50 to 100 mg once daily +CT, n = 751, mean follow-up 3.4 years): 327 (43.5) n (%)
- Death, patients [3, 6]: 158 (21.0) n (%)
- Doubling of sCr or ESRD, patients [3, 6]: 226 (30.1) n (%)
- Doubling of sCr, patients [3, 6]: 162 (21.6) n (%)
- ESRD or Death, patients [3, 6]: 255 (34.0) n (%)
- ESRD, patients [3, 6]: 147 (19.6) n (%)
- Risk Reduction, Doubling of sCr, ESRD or Death (composite primary endpoint) ([3]; losartan relative to placebo, intention-to-treat, Cox model, p=0.024): 16%
- Risk Reduction, ESRD ([3]; losartan relative to placebo, p=0.002): 28%
- Risk Reduction, Doubling of sCr ([3]; losartan relative to placebo, p=0.006): 25%
- Risk Reduction, Doubling of sCr or ESRD [3, 7]: 21%
- Risk Reduction, ESRD or Death [3, 7]: 20%
- Risk Reduction, Death ([3]; losartan relative to placebo, p=0.882): −2%
- Decrease in risk of primary composite endpoint after correcting for blood pressure ([3]; mean arterial pressure as time-varying covariate, p=0.034): 15%
- Risk reduction in primary composite endpoint, per protocol analysis ([3]; patients who remained on treatment throughout the protocol, p=0.008): 22%
- Effect in pre-defined subgroups (primary composite, ESRD, ESRD or death) ([3]; patients with baseline serum creatinine greater than 2.0 mg/dL and urine albumin:creatinine ratio greater than 2000 mg/g): particularly beneficial
- Discontinued for Any Reason ([4]; discontinuation from study therapy): 341 (45.4) n (%)
- Clinical adverse experience causing discontinuation: End Stage Renal Disease [4]: 16 (2.1) n (%)
- Clinical adverse experience causing discontinuation: Heart Failure [4]: 23 (3.0) n (%)
- Clinical adverse experience causing discontinuation: Myocardial Infarction [4]: 7 (0.9) n (%)
- Clinical adverse experience causing discontinuation: Stroke [4]: 9 (1.2) n (%)
- Clinical adverse experience causing discontinuation: Worsening renal insufficiency [4]: 8 (1.1) n (%)
- Discontinuation from study therapy: Clinical Adverse Experience [4]: 128 (17.0) n (%)
- Discontinuation from study therapy: Deaths [4]: 65 (8.7) n (%)
- Discontinuation from study therapy: Laboratory Adverse Experience [4]: 21 (2.8) n (%)
- Laboratory adverse experience causing discontinuation: Hyperkalemia [4]: 9 (1.2) n (%)
- Composite endpoint of cardiovascular morbidity and mortality, difference versus placebo plus conventional therapy ([5]; losartan plus conventional therapy): no significant difference
- Patients with myocardial infarction ([5]; mean follow-up 3.4 years): 50 patients
- Patients with hospitalization for heart failure ([5]; time to first hospitalization, mean follow-up 3.4 years): 89 patients
- Risk reduction, hospitalization for heart failure ([5]; versus placebo, p=0.005): 32%
- Risk reduction, myocardial infarction ([5]; versus placebo, p=0.08, did not reach statistical significance): 28%
- Risk reduction, fatal or non-fatal cardiovascular event ([5]; versus placebo, p=0.26): 9%
